The source of these data is patent US9642831B2, “Substituted chromanes and method of use” (AbbVie S.á.r.l., priority 2014, dated 2017).

For this assay, the target named is F508delCFTR (Homo sapiens, UniProt P13569, DEL508-508). The experiment in a line: Cell Surface Expression-Horse Radish Peroxidase (CSE-HRP) assay. Also noted: expressed in transfected cells; host or cells: CFBE41o- human lung derived epithelial cell line, doxycycline-inducible. The assay is classed as cell-based. Conditions: CFBE4lo-F508delCFTR-HRP cells; for EC50: 18-24 hours at 33° C., 8-point curve, highest concentration 20 μM, luminescence readout; for Emax: maximum % activity at any tested concentration, normalized to on-plate positive control (3 μM Example 1). The source says: Cell Surface Expression-Horse Radish Peroxidase (CSE-HRP) Assay:
A cellular assay for measuring the F508delCFTR cell surface expression after correction with test compounds was developed in human lung derived epithelial cell line (CFBE4lo-) (Veit G et al, (2012) Mol Biol Cell. 23(21): 4188-4202). This was achieved by expressing the F508delCFTR mutation along with a horseradish peroxidase (HRP) in the fourth exofacial loop and then measuring the HRP activity using luminescence readout from these cells, CFBE4lo-F508delCFTR-HRP, that were incubated overnight with the test corrector compounds. Briefly, for this primary assay, the CFBE4lo-F508delCFTR-HRP cells were plated in 384-well plates (Greiner Bio-one; Cat 781080) at 4,000 cells/well along with 0.5 μg/mL doxycycline to induce the F508delCFTR-HRP expression and further incubated at 37° C., 5% CO2 for 72 hours. The test compounds were then added at the required concentrations and further incubated for 18-24 hours at 33° C. The highest concentration tested was 20 μM with an 8-point concentration response curve using a 3-fold dilution. Three replicate plates were run to determine one EC50. All plates contained negative controls (dimethyl sulfoxide, DMSO) and positive controls (3 μM of 3-[(2R,4R)-4-({[1-(2,2-difluoro-1,3-benzodioxol-5-yl)cyclopropyl]carbonyl}amino)-7-methoxy-3,4-dihydro-2H-chromen-2-yl]benzoic acid) as well as on-plate concentration response of the positive control. Post incubation, the plates were washed 5× times with Dulbecco's phosphate buffered saline (DPBS), followed by the addition of the HRP substrate, luminol (50 μL), and measuring the HRP activity using luminescence readout on EnVision® Multilabel Plate Reader (Perkin Elmer; product number 2104-0010). The raw counts from the experiment are analyzed using Accelrys® Assay Explorer v3.3.
Z′ greater than 0.5 was used as passing quality control criteria for the plates.
The Z′ is defined as: 1−[3*SDPositive Control+3*SDNegative Control/Absolute(MeanPositive Control−MeanNegative Control)] wherein “SD” is standard deviation.
The % activity measured at each of the 8 test concentrations of the test compound was normalized to the on-plate positive control using the following formula: % activity=[(test compound response−DMSO response)/(positive control response−DMSO response)]*100
The maximum % activity achieved for the test compound at any tested concentration is presented in Table 1 along with the EC50 calculated using the following general sigmoidal curve with variable Hill slope equation (described as Model 42 in the Accelrys® Assay Explorer v3.3 software): y=(a−d)/(1+(x/c)^b)+d
General sigmoidal curve with concentration, response, top, bottom, EC50 and Hill slope.
This model describes a sigmoidal curve with an adjustable baseline, a. The equation can be used to fit curves where response is either increasing or decreasing with respect to the independent variable, “x”.
“x” is a concentration of drug under test.
“a” is the maximum response, and “d” is the minimum response
“c” is the inflection point (EC50) for the curve. That is, “y” is halfway between the lower and upper asymptotes when x=c.
“b” is the slope-factor or Hill coefficient. The sign of b is positive when the response increases with increasing dose and is negative when the response decreases with increasing dose (inhibition).

Sequence of F508delCFTR (P13569 with tags, fused parts or gaps DEL508-508): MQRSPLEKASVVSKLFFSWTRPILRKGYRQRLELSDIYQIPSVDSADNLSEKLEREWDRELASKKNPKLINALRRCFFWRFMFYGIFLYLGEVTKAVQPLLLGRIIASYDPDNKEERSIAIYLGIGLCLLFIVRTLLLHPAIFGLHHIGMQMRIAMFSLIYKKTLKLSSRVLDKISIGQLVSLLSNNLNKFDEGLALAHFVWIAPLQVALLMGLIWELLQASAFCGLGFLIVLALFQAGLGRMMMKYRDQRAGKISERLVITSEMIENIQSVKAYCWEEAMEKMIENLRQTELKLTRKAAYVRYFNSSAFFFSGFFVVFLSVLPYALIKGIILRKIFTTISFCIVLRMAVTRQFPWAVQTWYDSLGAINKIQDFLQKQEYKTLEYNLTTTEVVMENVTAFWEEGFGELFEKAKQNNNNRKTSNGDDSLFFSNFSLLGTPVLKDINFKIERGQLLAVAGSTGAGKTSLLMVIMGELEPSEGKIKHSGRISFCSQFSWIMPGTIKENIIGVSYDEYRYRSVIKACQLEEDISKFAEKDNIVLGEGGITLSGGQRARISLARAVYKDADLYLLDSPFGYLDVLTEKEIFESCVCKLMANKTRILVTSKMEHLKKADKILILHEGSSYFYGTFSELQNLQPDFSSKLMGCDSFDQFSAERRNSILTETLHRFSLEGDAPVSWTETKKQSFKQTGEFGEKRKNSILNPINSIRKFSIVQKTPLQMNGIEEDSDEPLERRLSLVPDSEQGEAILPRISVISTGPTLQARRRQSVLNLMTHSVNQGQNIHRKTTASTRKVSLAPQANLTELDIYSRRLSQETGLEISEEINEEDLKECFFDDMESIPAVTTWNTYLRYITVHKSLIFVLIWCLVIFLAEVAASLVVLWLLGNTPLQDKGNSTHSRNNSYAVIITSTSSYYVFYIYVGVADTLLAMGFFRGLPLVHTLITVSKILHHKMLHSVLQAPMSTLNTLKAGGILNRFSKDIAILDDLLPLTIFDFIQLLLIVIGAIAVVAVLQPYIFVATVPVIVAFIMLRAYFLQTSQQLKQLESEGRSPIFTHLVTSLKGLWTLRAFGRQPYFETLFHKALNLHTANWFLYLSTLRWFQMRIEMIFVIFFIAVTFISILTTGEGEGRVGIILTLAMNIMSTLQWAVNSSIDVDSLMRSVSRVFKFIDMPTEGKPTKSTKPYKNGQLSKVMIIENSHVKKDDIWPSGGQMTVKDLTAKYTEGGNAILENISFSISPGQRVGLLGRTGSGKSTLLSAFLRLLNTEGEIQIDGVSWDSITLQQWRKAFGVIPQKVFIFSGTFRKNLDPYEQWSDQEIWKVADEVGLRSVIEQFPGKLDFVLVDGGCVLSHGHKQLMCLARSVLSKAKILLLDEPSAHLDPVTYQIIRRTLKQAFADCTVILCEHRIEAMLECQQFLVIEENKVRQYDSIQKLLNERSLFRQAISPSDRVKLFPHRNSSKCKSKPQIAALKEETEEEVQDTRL

As a reminder, the EC50 is the concentration giving half of the maximal effect. Higher therefore signals weaker potency. For orientation: Emax means the size of the effect at its maximum, as opposed to the concentration needed. `O=C(O)c1ccc([C@H]2C[C@@H](NC(=O)C3(c4ccc5c(c4)OC(F)(F)O5)CC3)c3ccc(O)cc3O2)cc1` [Example 128, 4-[(2R,4R)-4-({[1-(2,2-difluoro-1,3-benzodioxol-5-yl)cyclopropyl]carbonyl}amino)-7-hydroxy-3,4-dihydro-2H-chromen-2-yl]benzoic acid]: the EC50 worked out at 4570 nM and the Emax was 66%.
The corresponding values for `COc1ccc2c(c1)O[C@@H](C(=O)NCCc1cccc(O)c1)C[C@@H]2NC(=O)C1(c2ccc3c(c2)OC(F)(F)O3)CC1` (racemic) [Example 198, rac-(2R,4S)-4-({[1-(2,2-difluoro-1,3-benzodioxol-5-yl)cyclopropyl]carbonyl}amino)-N-[2-(3-hydroxyphenyl)ethyl]-7-methoxy-3,4-dihydro-2H-chromene-2-carboxamide] are 1710 nM and 67%.
The corresponding values for `COCCOc1ccc2c(c1)O[C@@H](c1cccc(C(=O)OC)c1)C[C@H]2NC(=O)C1(c2ccc3c(c2)OC(F)(F)O3)CC1` [Example 94, methyl 3-[(2R,4R)-4-({[1-(2,2-difluoro-1,3-benzodioxol-5-yl)cyclopropyl]carbonyl}amino)-7-(2-methoxyethoxy)-3,4-dihydro-2H-chromen-2-yl]benzoate] are 940 nM and 119%.
`COC(=O)c1ccc([C@H]2C[C@@H](NC(=O)C3(c4ccc5c(c4)OC(F)(F)O5)CC3)c3ccc(OC(F)F)cc3O2)cc1` [Example 123, methyl 4-[(2R,4R)-4-({[1-(2,2-difluoro-1,3-benzodioxol-5-yl)cyclopropyl]carbonyl}amino)-7-(difluoromethoxy)-3,4-dihydro-2H-chromen-2-yl]benzoate] displayed a concentration giving a half-maximal response (EC50) of 50 nM and an Emax of 115%.
`COc1ccc2c(n1)O[C@@H](c1cccc(C(=O)O)c1)C[C@@H]2NC(=O)C1(c2ccc3c(c2)OC(F)(F)O3)CC1` (racemic) [Example 29, rac-3-[(2R,4S)-4-({[1-(2,2-difluoro-1,3-benzodioxol-5-yl)cyclopropyl]carbonyl}amino)-7-methoxy-3,4-dihydro-2H-pyrano[2,3-b]pyridin-2-yl]benzoic acid] yielded a half-maximal effective concentration (EC50) of 5710 nM and an Emax of 106%.
The corresponding values for `Cc1ccc2c(c1)O[C@@H](c1cccc(C(=O)N3CCCC(CO)C3)c1)C[C@H]2NC(=O)C1(c2ccc3c(c2)OC(F)(F)O3)CC1` (stereo partly drawn) [Example 52, 1-(2,2-difluoro-1,3-benzodioxol-5-yl)-N-[(2R,4R)-2-(3-{[3-(hydroxymethyl)piperidin-1-yl]carbonyl}phenyl)-7-methyl-3,4-dihydro-2H-chromen-4-yl]cyclopropanecarboxamide] are 1010 nM and 93%.
For `COC(=O)c1ccc([C@H]2C[C@@H](NC(=O)C3(c4ccc5c(c4)OC(F)(F)O5)CC3)c3ccc(OC)cc3O2)c(F)c1` [Example 138, methyl 4-[(2R,4R)-4-({[1-(2,2-difluoro-1,3-benzodioxol-5-yl)cyclopropyl]carbonyl}amino)-7-methoxy-3,4-dihydro-2H-chromen-2-yl]-3-fluorobenzoate] the same measures were 50 nM and 119%.
`COc1ccc2c(c1)O[C@@H](C(=O)NC(CO)c1ccccc1OC)C[C@@H]2NC(=O)C1(c2ccc3c(c2)OC(F)(F)O3)CC1` (mixture of isomers) [Example 197, rac-(2R,4S)-4-({[1-(2,2-difluoro-1,3-benzodioxol-5-yl)cyclopropyl]carbonyl}amino)-N-[2-hydroxy-1-(2-methoxyphenyl)ethyl]-7-methoxy-3,4-dihydro-2H-chromene-2-carboxamide] came in with an EC50 of 2100 nM and a maximal response (Emax) of 73%.
For `Cc1ccc2c(c1)O[C@@H](c1cccc(C(=O)NCC(O)C(F)(F)F)c1)C[C@H]2NC(=O)C1(c2ccc3c(c2)OC(F)(F)O3)CC1` (stereo partly drawn) [Example 50, 3-[(2R,4R)-4-({[1-(2,2-difluoro-1,3-benzodioxol-5-yl)cyclopropyl]carbonyl}amino)-7-methyl-3,4-dihydro-2H-chromen-2-yl]-N-(3,3,3-trifluoro-2-hydroxypropyl)benzamide] the same measures were 860 nM and 101%.
Compound `CC1(C)CC(NC(=O)C2(c3ccc4c(c3)OC(F)(F)O4)CC2)c2ccc(O)cc2O1` (stereo not shown) [Example 124, 1-(2,2-difluoro-1,3-benzodioxol-5-yl)-N-(7-hydroxy-2,2-dimethyl-3,4-dihydro-2H-chromen-4-yl)cyclopropanecarboxamide] had a 50% effective concentration (EC50) of 6760 nM and an Emax of 26%.
With `COc1ccc2c(c1)O[C@@H](C(=O)N1CCC(F)(F)CC1)C[C@H]2NC(=O)C1(c2ccc3c(c2)OC(F)(F)O3)CC1` (racemic) [Example 174, rac-1-(2,2-difluoro-1,3-benzodioxol-5-yl)-N-{(2R,4R)-2-[(4,4-difluoropiperidin-1-yl)carbonyl]-7-methoxy-3,4-dihydro-2H-chromen-4-yl}cyclopropanecarboxamide], the 50% effective concentration (EC50) was 1730 nM and the Emax turned out to be 55%.
`Cc1ccc2c(c1)O[C@@H](c1cccc(C(=O)NC3CCC(C)(C(=O)O)C3)c1)C[C@H]2NC(=O)C1(c2ccc3c(c2)OC(F)(F)O3)CC1` (stereo partly drawn) [Example 43, 3-({3-[(2R,4R)-4-({[1-(2,2-difluoro-1,3-benzodioxol-5-yl)cyclopropyl]carbonyl}amino)-7-methyl-3,4-dihydro-2H-chromen-2-yl]benzoyl}amino)-1-methylcyclopentanecarboxylic acid] gave a half-maximal effective concentration (EC50) of 850 nM and an Emax of 78%.
For `COc1ccc2c(c1)O[C@@H](C(=O)N1CCOCC1)C[C@H]2NC(=O)C1(c2ccc3c(c2)OC(F)(F)O3)CC1` (racemic) [Example 177, rac-1-(2,2-difluoro-1,3-benzodioxol-5-yl)-N-[(2R,4R)-7-methoxy-2-(morpholin-4-ylcarbonyl)-3,4-dihydro-2H-chromen-4-yl]cyclopropanecarboxamide] the same measures were 2910 nM and 56%.
For `COC(=O)c1cccc([C@H]2C[C@@H](NC(=O)C3(c4ccc5c(c4)OC(F)(F)O5)CC3)c3ccc(OC)nc3O2)c1` (racemic) [Example 30, methyl rac-3-[(2R,4R)-4-({[1-(2,2-difluoro-1,3-benzodioxol-5-yl)cyclopropyl]carbonyl}amino)-7-methoxy-3,4-dihydro-2H-pyrano[2,3-b]pyridin-2-yl]benzoate] the same measures were 1880 nM and 78%.
In turn, `Cc1ccc2c(c1)[C@@H](NC(=O)C1(c3ccc4c(c3)OC(F)(F)O4)CC1)C[C@H](c1cccc(C(=O)O)c1)O2` [Example 13, 3-[(2R,4S)-4-({[1-(2,2-difluoro-1,3-benzodioxol-5-yl)cyclopropyl]carbonyl}amino)-6-methyl-3,4-dihydro-2H-chromen-2-yl]benzoic acid] returned an EC50 of 4570 nM and a maximum response (Emax) of 118%.
`CCOC(=O)c1csc([C@H]2C[C@@H](NC(=O)C3(c4ccc5c(c4)OC(F)(F)O5)CC3)c3ccccc3O2)n1` (stereo in doubt) [Example 142, ethyl rel-2-[(2R,4R)-4-({[1-(2,2-difluoro-1,3-benzodioxol-5-yl)cyclopropyl]carbonyl}amino)-3,4-dihydro-2H-chromen-2-yl]-1,3-thiazole-4-carboxylate] came in with an EC50 of 1180 nM and an Emax of 87%.
For `COc1ccc2c(c1)OCC(Cc1ccc(OC)c(OC)c1)C2NC(=O)C1(c2ccc3c(c2)OC(F)(F)O3)CC1` (stereo not shown) [Example 91, 1-(2,2-difluoro-1,3-benzodioxol-5-yl)-N-[3-(3,4-dimethoxybenzyl)-7-methoxy-3,4-dihydro-2H-chromen-4-yl]cyclopropanecarboxamide] the same measures were 2710 nM and 82%.
